The values below come from patent US20240091162A1, “COMPOSITIONS AND METHODS FOR TREATING DEPRESSION AND ANXIETY” (THE TRUSTEES OF COLUMBIA UNIVERSITY IN THE CITY OF NEW YORK, priority 2021, published 2024).

The nature of series [1]: in vivo FLX pharmacokinetic study and in vivo imaging of model drug distribution after delivery by microburs. As to conditions: after delivery by MBs.
For series [2] the following is noted: in vivo.
A short description of series [3]: release of nanoparticles / SSRI from microbur and mesoporous silica nanoparticles. Format: physicochemical.

With `O=C1OC2(c3ccc(O)cc3Oc3cc(O)ccc32)c2ccccc21` [Fluorescein], the “model drug distribution (in vivo imaging system)” value in series [1] is on record as “selective dispersion of drug in the gut”.

For the compound `CNCCC(Oc1ccc(C(F)(F)F)cc1)c1ccccc1` (stereo not shown) [Fluoxetine, fluoxetine], the “dispersion of FLX in the intestine” value in series [2] is reported as “local dispersion of FLX on small intestine epithelium”. In addition, the “FLX release profile from MB” value in series [3] (MB with different structures) is given as “sustainable FLX release profile”. Moreover, the “release of SSRI from MSN” value in series [3] (from a 42 nm-sized MSN) is given as “controlled release”.
